In ChEMBL document CHEMBL5252612, “A novel selective estrogen receptor degrader induces cell cycle arrest in breast cancer via ERα degradation and the autophagy-lysosome pathway” (Bioorg Med Chem, 2023):
Activity calls are given as the source filed them. The calls are words filed in the database; no cut-off is given here.

Columns and labels:
T47D [1] = test: Anticancer activity against ER-alpha positive human T47D cells assessed as reduction in cell viability at 10 uM measured after 48 hrs by CCK8 assay; type: functional, cell-based
T47D [2] = test: Induction of cell cycle arrest in human T47D cells assessed as proportion of cells at G1 phase at 10 uM incubated for 24 hrs by flow cytometry (reference value: 52.6%); type: functional
LCC2 [3] = test: Anticancer activity against ER-alpha positive human LCC2 cells assessed as reduction in cell viability at 20 uM measured after 48 hrs by CCK8 assay; type: functional, cell-based
[4] = Toxicity in BALB/c nude mouse xenografted with human MCF7 cells assessed as kidney cell morphological changes at 2 to 4 mg/kg, ip administered every other day by Hematoxylin and eosin staining based analysis; type: organism-based; conditions: in vivo, dose 2-4 mg/kg
T47D [5] = test: Induction of autophagy in human T47D cells assessed as increase in LC3 protein expression at 5 to 10 uM incubated for 24 hrs by western blot analysis; type: functional, cell-based; conditions: dose 5-10 µM
LCC2 [6] = test: Inhibition of colony formation in tamoxifen-resistant human LCC2 cells at 1 uM incubated for 14 days by crystal violet staining based analysis; type: functional, cell-based; conditions: time 14.0 day
T47D [7] = test: Induction of cell cycle arrest in human T47D cells overexpressing MYC assessed as proportion of cells at G1 phase at 10 uM incubated for 24 hrs by flow cytometry (reference value: 22.1%); type: functional
[8] = Induction of cell cycle arrest in tamoxifen-resistant human LCC2 cells assessed as proportion of cells at S phase at 1 uM by flow cytometry (reference value: 28.4%); type: functional
[9] = target: T1, Estrogen receptor (Homo sapiens) (UniProt P03372); test: Induction of ER-alpha degradation in human T47D cells assessed as decrease in ER-alpha protein expression in presence of autophagy inhibitor, 3-MA of by western blot analysis; type: cell-based
T1 sequence (whole entry): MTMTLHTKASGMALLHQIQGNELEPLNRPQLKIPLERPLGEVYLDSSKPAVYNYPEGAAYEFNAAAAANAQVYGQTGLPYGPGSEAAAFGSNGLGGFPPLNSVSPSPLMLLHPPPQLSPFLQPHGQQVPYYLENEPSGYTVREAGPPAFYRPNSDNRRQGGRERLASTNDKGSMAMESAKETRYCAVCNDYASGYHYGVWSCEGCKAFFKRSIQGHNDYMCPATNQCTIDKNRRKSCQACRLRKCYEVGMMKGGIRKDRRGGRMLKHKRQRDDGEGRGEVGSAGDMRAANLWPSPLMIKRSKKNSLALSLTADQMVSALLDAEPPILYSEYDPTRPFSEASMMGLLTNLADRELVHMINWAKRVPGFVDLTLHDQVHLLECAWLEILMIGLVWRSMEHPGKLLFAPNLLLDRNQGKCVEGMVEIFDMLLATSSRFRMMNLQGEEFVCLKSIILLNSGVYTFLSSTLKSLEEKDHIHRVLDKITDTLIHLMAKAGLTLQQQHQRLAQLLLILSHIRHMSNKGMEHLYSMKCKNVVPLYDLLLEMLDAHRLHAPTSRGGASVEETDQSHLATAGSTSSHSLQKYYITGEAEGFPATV

[10] = Downregulation of MYC expression in human T47D cells at 10 uM incubated for 12 hrs by RNA-seq analysis; type: functional
[11] = Induction of cell cycle arrest in tamoxifen-resistant human LCC2 cells assessed as proportion of cells at S phase at 10 uM by flow cytometry (reference value: 28.4%); type: functional
[12] = target: T1, Estrogen receptor (Homo sapiens); test: Induction of ER-alpha degradation in human T47D cells assessed as decrease in ER-alpha protein expression in presence of autophagy inhibitor, CQ by western blot analysis; type: cell-based
MCF7 [13] = test: Antitumor activity against human MCF7 cells xenografted in BALB/c nude mouse assessed as reduction in tumor weight at 2 to 4 mg/kg, ip administered every other day; type: functional, organism-based; conditions: dose 2-4 mg/kg
T47D [14] = test: Induction of autophagy in human T47D cells assessed as upregulation of CTSD protein expression at 10 uM incubated for 24 hrs by western blot analysis; type: functional, cell-based
T47D [15] = test: Induction of autophagy in human T47D cells assessed as increase in LC3 protein expression at 5 to 10 uM incubated for 24 hrs in presence of chloroquine by western blot analysis; type: functional, cell-based; conditions: dose 5-10 µM
T47D [16] = test: Induction of apoptosis in human T47D cells at 10 uM incubated for 48 hrs by TUNEL assay; type: functional, cell-based
T47D [17] = test: Anticancer activity against ER-alpha positive human T47D cells assessed as reduction in cell viability at 10 uM measured after 48 hrs in presence of autophagy inhibitor, 3-MA by CCK8 assay; type: functional, cell-based
[18] = Toxicity in BALB/c nude mouse xenografted with human MCF7 cells assessed as liver cell morphological changes at 2 to 4 mg/kg, ip administered every other day by Hematoxylin and eosin staining based analysis; type: organism-based; conditions: in vivo, dose 2-4 mg/kg
MCF7 [19] = test: Induction of cell cycle arrest in human MCF7 cells assessed as proportion of cells at G1 phase at 1 uM incubated for 24 hrs by flow cytometry (reference value: 46.3%); type: functional
T47D [20] = test: Induction of apoptosis and necrosis in human T47D cells assessed as live cells at 20 uM incubated for 48 hrs by AnnexinV-FITC/PI staining based flow cytometry (reference value: 96.26%); type: functional
MCF7 [21] = test: Anticancer activity against ER-alpha positive human MCF7 cells assessed as reduction in cell viability measured after 48 hrs by CCK8 assay; type: functional, cell-based
T47D [22] = test: Induction of cell cycle arrest in human T47D cells assessed as proportion of cells at S phase at 10 uM incubated for 24 hrs by flow cytometry (reference value: 27.7%); type: functional
T47D [23] = test: Induction of autophagy in human T47D cells overexpressing ESR1 assessed as increase in autophagosome number by measuring LC3 puncta formation by immunofluorescence assay; type: functional, cell-based
[24] = target: T1, Estrogen receptor (Homo sapiens); test: Induction of ER-alpha degradation in human T47D cells assessed as reduction in ER-alpha stability at 10 uM incubated for 3 to 9 hrs in presence of protein synthesis inhibitor, CHX by CHX chase assay based western blot analysis; type: cell-based; conditions: time 3-9 hrs
[25] = Induction of cell cycle arrest in tamoxifen-resistant human LCC2 cells assessed as proportion of cells at G1 phase at 1 uM by flow cytometry (reference value: 47.4%); type: functional
[26] = Induction of cell cycle arrest in tamoxifen-resistant human LCC2 cells assessed as proportion of cells at S phase at 5 uM by flow cytometry (reference value: 28.4%); type: functional
MCF7 [27] = test: Induction of cell cycle arrest in human MCF7 cells assessed as proportion of cells at G1 phase at 5 uM incubated for 24 hrs by flow cytometry (reference value: 46.3%); type: functional
T47D [28] = test: Induction of cell cycle arrest in human T47D cells assessed as proportion of cells at S phase at 1 uM incubated for 24 hrs by flow cytometry (reference value: 15.3%); type: functional
MCF7 [29] = test: Induction of cell cycle arrest in human MCF7 cells assessed as proportion of cells at G2 phase at 1 uM incubated for 24 hrs by flow cytometry (reference value: 25.5%); type: functional
T47D [30] = test: Induction of cell cycle arrest in human T47D cells overexpressing MYC assessed as proportion of cells at G2 phase at 10 uM incubated for 24 hrs by flow cytometry (reference value: 48.5%); type: functional

For `COc1ccc(N(CC(F)(F)F)S(=O)(=O)C2CC3OC2C(c2ccc(OCCN4CCCC4)cc2)=C3c2ccc(O)cc2)cc1` (stereo unspecified), the Activity (T47D [1]) was “Active”, the Activity (T47D [2]) was 71.6% and the Activity (LCC2 [3]) was “Active”. For the same molecule, the Activity [4] was “Non-Toxic”, the Activity (T47D [5]) was “Active” and the inhibition (LCC2 [6]) was “Active”. The Activity (T47D [7]) was 20.6%, the Activity [8] was 19.6% and the Activity [9] was “Active”. For the same molecule, the “fold change (FC)” value [10] was -1.037, the Activity [11] was 13.4% and the Activity [12] was “Active”. The Activity (MCF7 [13]) was “Active”, the Activity (T47D [14]) was “Active” and the Activity (T47D [15]) was “Active”. For the same molecule, the Activity (T47D [16]) was “Active”, the Activity (T47D [17]) was “inactive” and the Activity [18] was “Non-Toxic”. The Activity (MCF7 [19]) was 63.7%, the Activity (T47D [20]) was 78.57% and the Activity (MCF7 [21]) was “Dose-Dependent Effect”. For the same molecule, the IC50 (MCF7 [21]; MCF7, 48 h) was 16.4 µM, the Activity (T47D [22]) was 10.2% and the Activity (T47D [23]) was “Active”. For the same molecule, the Activity [24] was “Active”, the Activity [25] was 63.9% and the Activity [26] was 13%. The Activity (MCF7 [27]) was 65.1%, the Activity (T47D [28]) was 9.47% and the Activity (MCF7 [29]) was 18.5%. It also gave an Activity (T47D [30]) of 52.5%.
